We go through two molecules from patent publication US11110079B2, “Mebendazole polymorph for treatment and prevention of tumors” (THE JOHNS HOPKINS UNIVERSITY, priority 2015, dated 2021).

pIC50: −log10 of the molar value.

The conditions of data set [1]: mice; cited from earlier work.
The conditions of data set [2]: human; cited from earlier work.
Data set [3] relates to GL261-luc glioma. As to conditions: GL261, single agent 50 mg/kg; control 29.5 days. The method, then: All animal studies were approved by the Animal Care and Use Committee (ACUC) of the Johns Hopkins University. The intracranial implantation of GL261-luc in the frontal lobe and D425 cells in the cerebellum of the mouse brain followed the procedure described before (3,4). […] MBZ and other benzimidazoles were prepared by either mixing the power with PBS and sesame oil (1:1, v:v) (Sigma) or by grinding the tablets to powder and resuspending in the aforementioned PBS/sesame oil mixture. Elacridar was prepared as a 10 mg/ml suspension in 0.5% hydroxypropylmethylcellulose and 0.5% Tween 80 in PBS similarly as described before (15).
Animal survival data were analyzed by GraphPad Prism 5.0. The p-values were determined by a Mantel-Cox test. A p-value under 0.05 was accepted as statistically significant.

Data set [4] relates to D425 medulloblastoma. Put plainly: Orthotopic D425 medulloblastoma xenograft model (survival). The class given is in vivo, mouse. Conditions: orthotopic D425 medulloblastoma xenograft; MBZ-C 50 mg/kg five days a week, elacridar 50 mg/kg 7 days.
Description: The intracranial implantation of GL261-luc in the frontal lobe and D425 cells in the cerebellum of the mouse brain followed the procedure described before (3,4). Five days after tumor implantation, mice were gavaged with MBZ or the other benzimidazoles at 50 mg/kg five days a week. MBZ and other benzimidazoles were prepared by either mixing the power with PBS and sesame oil (1:1, v:v) (Sigma) or by grinding the tablets to powder and resuspending in the aforementioned PBS/sesame oil mixture. Elacridar was prepared as a 10 mg/ml suspension in 0.5% hydroxypropylmethylcellulose and 0.5% Tween 80 in PBS similarly as described before (15).
Data set [5] is described as follows: in vivo. Conditions: mouse. The protocol: Female C57BL6 mice, 5-6 weeks of age, were purchased from NCl. Animal experimentation was conducted under an approved IACUC protocol and complied with local and national guidelines. All MBZ polymorphs and tablets were administered by oral gavage at a dose of 50 mg/kg. Elacridar was administered by oral gavage at 50 mg/kg 2 hours prior to the administration of MBZ-C. Mice (3 animals/time point) were first anesthetized via intraperitoneal injection of 60 μl of a stock solution containing ketamine hydrochloride (75 mg/kg) (100 mg/ml; Ketamine HCl; Abbot Laboratories, Chicago, Ill., USA) and xylazine (7.5 mg/kg) (100 mg/ml; Xyla-ject®, Phoenix Pharmaceutical, St. Joseph, Mo., USA) in a sterile 0.9% NaCl solution. Then the blood samples were taken by puncturing and aspiring from the left heart ventricle. Blood samples were mixed with 5 mM EDTA and centrifuged at 10000 g for 5 min to obtain the plasma for further analysis.
For brain distribution studies, mice were perfused under anesthesia with 20 ml ice-cold saline supplemented with 20 μl of 0.02% heparin by injecting slowly into the left heart ventricle using a 20 gauge needle. The right atrium was cut open before to allow the blood outflow. The yellow color of kidney indicated a good perfusion quality that was essential to deplete blood from the brain tissue. In GL261 tumor-bearing mice, GL261 tumor was distinguished from the normal brain by easily recognizable differences in color and shade. GL261 tumor was separated with a scalpel and the normal brain tissue was cut from the contralateral hemisphere. All brain samples were weighed and stored at −80° C. before processing.
Blood, brain and brain tumor tissues were harvested as a function of time after MBZ administration. To compare the pharmacokinetics of MBZ polymorphs, three cohorts of mice each were administered a single dose of 50 mg/kg by oral gavage. For the initial comparison studies, plasma samples were obtained at 1, 2.5, 4, 6, 8, 15, and 24 hours after MBZ administration while brain tissue was only collected at 6 hours. For the comparison studies of polymorph C with or without ELD, plasma and brain tissue samples were obtained at 2.5, 4, and 8 hours after MBZ administration. Brain tumor tissue samples were also obtained for polymorph C alone.
MBZ and the two metabolites, 2-amino-5-benzoyl-benzimidazole (MBZ-NH2, CAS 52329-60-9) and rac dihydro mebendazole (MBZ-OH, CAS 60254-95-7), were quantified in plasma, brain and brain tumor tissue. Tissue homogenates were prepared at a concentration of 200 mg/ml in plasma prior to extraction. Mebendazole and metabolites were extracted from 50 μl of plasma or tissue homogenates with 0.1 ml of methanol containing 0.5 μg/ml of the internal standard A620223.69. After centrifugation, the supernatant (60 μl) was mixed with water (40 μl) and then transferred into autosampler vials. […] The analytes were monitored using an AB Sciex triple quadrapole™ 5500 mass-spectrometric detector (Applied Biosystems, Foster City, Calif., USA) using electrospray ionization operating in positive mode. The spectrometer was programmed to allow the [MH+] ions of MBZ, MBZ-NH2, MBZ-OH, and A620223.69 at m/z 296.0, 238.0, 298.0, and 287.2, respectively to pass through the first quadrupole (Q1) and into the collision cell (Q2). The daughter ions for MBZ (m/z 263.9), MBZ-NH2 (m/z 105.1), MBZ-OH (m/z 266.0), and A620223.69 (m/z 124.1) were monitored through the third quadrupole (Q3). Calibration curves for MBZ and metabolites were computed using the area ratio peak of the analysis to the internal standard by using a quadratic equation with a 1/x weighting function over the range of 5 to 500 ng/ml (MBZ) and 1 to 500 ng/ml (metabolites) with dilutions of up to 1:100 (v:v). If one or more concentrations were below limits of quantification, a value of ½ the limit of quantification was assigned for pharmacokinetic calculations.

Data set [6] deals with HT29. Put plainly: HT29 colon cancer flank xenograft. The class given is in vivo, Nude mice. The method, then: (§1) FIGS. 9A-9E. […] Two human colorectal carcinoma cell lines, HT29 and SW480, were implanted subcutaneously into the flanks of Nude mice and treated for four weeks with 50 mg/kg MBZ by oral gavage. Tumor volumes were measured twice weekly, averaged, and plotted over the course of the experiment. HT29 xenograft (FIG. 9A) and SW480 xenograft (B) growth inhibitory curves. Resected flank tumors from each group were weighed at the end of the experiment and compared to untreated control (FIG. 9C, FIG. 9D) Paraffin-embedded flank tumor tissues were stained for Ki67 proliferation marker. […] Five randomly selected fields from each slide were quantified as the percent Ki67-positive cell×100/total number of cells and represent the mean+SEM of five animals. *, P<0.05.

Data set [7] relates to SW480. Put plainly: SW480 colon cancer flank xenograft. The class given is in vivo, Nude mice. The protocol: as §1
For data set [8], the system named is polyps in the intestine of APC min/+ mice. The data set is described as follows: APC min/+ mouse chemoprevention study (intestinal polyps). It counts as in vivo.
Description: The average number of polyps for each treatment group were graphed for the proximal, middle and distal small intestines and colon (FIG. 11A). Individual polyps were measured and categorized based on size. The average number of polyps for Sulindac versus the combiniation of MBZ+Sulindac were analyzed separately for each section of the intestine (FIG. 11B).
The test system of data set [9] is glioma and medulloblastoma cell lines. As to conditions: tissue culture; cited from earlier work.

As for `Cn1nnc2c(C(N)=O)ncn2c1=O` [temozolomide], in data set [1], the B/P ratio was 0.408. In addition, in [2], the “cerebrospinal fluid (CSF)/plasma ratio” value is reported as 0.2.

For the molecule `COC(=O)Nc1nc2ccc(C(=O)c3ccccc3)cc2[nH]1` [MBZ, Mebendazole], the median survival in data set [3] and in data set [4] was 53 days each time. In addition, in data set [5], the “effect of ELD on average B/P ratios of MBZ” value was “elevated”. Further, the “distribution in GL261 brain tumor vs contralateral normal brain tissue” value in data set [5] (po, 50 mg/kg) is “did not differ significantly”. In addition, the “Ki67 proliferation marker staining” value in [6] (HT29 flank tumor tissue) and in data set [7] (SW480 flank tumor tissue) was “significantly less positive” in each case. The “c-myc and Bcl-2 protein expression” value in data set [6] (HT29 flank xenograft lysates) and in data set [7] (SW480 flank xenograft lysates) was “reduction of these proteins in most cases” each time. Besides, the “tumor growth and proliferation” value in [6] (HT29 xenograft, 50 mg/kg MBZ oral gavage four weeks) is “inhibits growth and proliferation”; in data set [7] (SW480 xenograft, 50 mg/kg MBZ oral gavage four weeks), “inhibits growth and proliferation”. In addition, the “formation, occurrence and size of polyps” value in [8] was “reduces the formation of polyps”. Moreover, the pIC50 (commonly the negative decadic logarithm of the IC50, by convention in mol/L) in data set [9] is 6.00 to 6.96.
